{
  "source": "patent US6566371B2",
  "about": "“Intraperitoneal administration of adenosine for the treatment of prevention of gastrointestinal of systemic diseases” (University of Pittsburgh, priority 2000, dated 2003)",
  "key": {"[1]": {"experiment": "Microdialysis of mesenteric vein and aortic arch during continuous peritoneal lavage with adenosine or AMP (Example 2)", "method": "(§1) In all the examples adult male Sprague-Dawley rats were purchased from Charles River Laboratories (Wilmington, Mass.) and maintained in the University of Pittsburgh Animal Facility (Pittsburgh, Pa.). Rats were provided free access to Prolab Isopro RMH 3000 rodent diet (PMI Nutrition Intl., Richmond, Ind.) and tap water. Light cycle, relative humidity and room temperature were 7:00 AM to 7:00 PM, 55% and 22° C., respectively. Animals weighed 357±11 (mean±SEM) grams at the time of study.\n(§2) Rats (n=5) were anesthetized and body temperature monitored and maintained as described for Example 1. The trachea was cannulated with PE-240 and a PE-50 catheter was inserted into the right jugular vein and an intravenous infusion of 0.9% saline was initiated at 50 μl/min. A femoral artery catheter (PE-50) was inserted and was connected to a digital blood pressure analyzer for continuous measurement of MABP and heart rate. Next, microdialysis probes (CMA/20 microdialysis probe 4 mm, Bioanalytical Systems, Inc., West Lafayette, Ind.) were inserted into the aortic arch (via the left carotid artery) and mesenteric vein. Microdialysis probes were perfused with 0.9% saline at 2 μl/min, and the dialysate exiting the probes was collected in a freezing apparatus. As in Example 1, a basin was constructed from the abdominal wall to create a bowl containing the viscera. However, unlike Example 1, instead of intermittent lavage with fresh solutions, the abdominal basin was continuously perfused with Tyrode's solution (5 ml/min) (Mi, Z., et al., J. Pharmacol. Exp. Ther. 287:926 (1998), the disclosure of which is incorporated herein by reference) that was maintained at 37° C. by a heated water bath. Thus, the viscera were submerged completely in Tyrode's solution that was constantly being replaced. After a 20-minute stabilization period, dialysate from the microdialysis probes was collected for 20 minutes. Next, the Tyrode's solution perfusing the peritoneal cavity was switched to prewarmed Tyrode's containing 10^−5 M adenosine (Sigma). After 10 minutes, the dialysate was collected for another 20 minutes. This procedure was repeated two more times as the concentration of adenosine was increased to 10^−4 M and finally to 10^−3 M. To determine whether AMP would behave as a “prodrug” for the delivery of adenosine, after a 20 minute washout period, the entire protocol was repeated with AMP (10^−5 M, 10^−4 M and 10^−3 M) (Sigma).\n(§3) Statistical Analysis: Data were analyzed in this example by repeated measures 1-factor analysis of variance. […] Statistical analyses were conducted with NCSS software (Version 6.0; Kaysville, Utah), and the criterion of significance was p<0.05.\n(§4) Sample Analysis: Levels of adenosine and its metabolites, inosine, hypoxanthine and xanthine, in the dialysate samples in this example were measured using an Isco (Lincoln, Nebr.) high-pressure liquid chromatographic system (pump model 2350, gradient programmer model 2360, 4.6×250-mm C18 column) with UV detection as described by Mi, Z., et al., J. Pharmacol. Exp. Ther. 273:728 (1995). The chromatography data system was JCL 6000 for Windows (Jones Chromatography LTD., Lakewood, Colo.)."}, "[2]": {"tested_on": "rats subjected to hemorrhagic shock", "experiment": "Hemorrhagic shock and resuscitation with continuous peritoneal lavage (Example 3)", "assay_type": "in vivo, Sprague-Dawley rats", "procedure": "The methods of the present invention are illustrated in more detail below. […] In a second study, microdialysis probes were placed in the mesenteric vein and aortic arch of rats, and the peritoneal cavity was continuously ravaged with adenosine or AMP solutions. In a third study, rats were subjected to hemorrhagic shock (2.75 ml of blood removed per 100 grams of body weight over a 15 minute period) for two hours, followed by volume resuscitation for one hour and observation for 72 hours. Rats received peritoneal lavage with adenosine or vehicle (0.9% saline) beginning 20 minutes after blood withdrawal and continuing through the one hour resuscitation period.\nHemorrhagic shock was induced by removing 2.75 ml of blood per 100 grams of body weight over a 15 minute period. Two hours after blood withdrawal, the animals were resuscitated by reinfusing the withdrawn blood and restoring and maintaining a normal blood pressure for one hour by infusing Ringer's solution (Baxter, Deerfield, Ill.) as needed. Beginning 20 minutes after blood withdrawal and continuing for one hour after reinfusion of the withdrawn blood, rats received either continuous peritoneal lavage with adenosine (10^−4 M) or 0.90% saline."}, "[3]": {"conditions": "rat, in vivo", "method": "as §1, §2, §3, §4"}, "[4]": {"tested_on": "anesthetized rats with mesenteric vasoconstriction induced by angiotensin II plus methoxamine", "experiment": "Intraperitoneal lavage with adenosine during intramesenteric artery infusion of angiotensin II plus methoxamine (Example 1)", "assay_type": "in vivo, Sprague-Dawley rats"}, "[5]": {"conditions": "continuous peritoneal lavage with 10^-3 M"}, "[6]": {"conditions": "continuous peritoneal lavage with adenosine 10^-4 M"}, "[7]": {"conditions": "Group 2, period 7, 10^-3 M adenosine in peritoneal lavage fluid"}},
  "note": "Read-outs that look alike come from different tables or passages of the source.",
  "data": [
    {"smiles": "Nc1ncnc2c1ncn2[C@@H]1O[C@H](COP(=O)(O)O)[C@@H](O)[C@H]1O", "note": "[AMP, adenosine-5′-monophosphate]", "values": [
      {"measurement": "purine levels in the aorta", "setting": "[1]; [5]", "value": "not in the aorta"},
      {"measurement": "purine levels in the mesenteric vein", "setting": "[1]; [5]", "value": "increased purine levels in the mesenteric vein"},
      {"measurement": "MABP", "setting": "[1]; during 10^-3 M in continuous peritoneal lavage, basal 113±5 (adenosine), 112±4 (AMP), not significantly affected", "value": "117±7", "unit": "mm Hg"},
      {"measurement": "heart rate", "setting": "[1]; during 10^-3 M in continuous peritoneal lavage, basal 351±15 (adenosine), 357±17 (AMP), not significantly affected", "value": "366±22", "unit": "beats/min"}
    ]},
    {"smiles": "Nc1ncnc2c1ncn2[C@@H]1O[C@H](CO)[C@@H](O)[C@H]1O", "note": "[adenosine]", "values": [
      {"measurement": "arterial pH vs vehicle-treated group", "setting": "[2]; [6]", "value": "significantly (p<0.05) higher"},
      {"measurement": "blood urea nitrogen vs vehicle-treated group", "setting": "[2]; [6]", "value": "significantly (p<0.05) lower"},
      {"measurement": "plasma level of lactate vs vehicle-treated group", "setting": "[2]; [6]", "value": "significantly (p<0.05) lower"},
      {"measurement": "plasma level of potassium vs vehicle-treated group", "setting": "[2]; [6]", "value": "significantly (p<0.05) lower"},
      {"measurement": "survival to 72 hours", "setting": "[2]; continuous peritoneal lavage with adenosine 10^-4 M, vehicle 4 of 10, p<0.05", "value": "9 of 10"},
      {"measurement": "MABP and heart rate vs vehicle-treated group", "setting": "[2]; during hemorrhagic shock and resuscitation, adenosine 10^-4 M lavage", "value": "similar"},
      {"measurement": "adenosine level in dialysate exiting mesenteric vein microdialysis catheter", "setting": "[3]; male, Sprague-Dawley", "value": "2.17 ± 0.60", "unit": "µM"},
      {"measurement": "hypoxanthine level in dialysate exiting mesenteric vein microdialysis catheter", "setting": "[3]; male, Sprague-Dawley", "value": "0.18 ± 0.04", "unit": "µM"},
      {"measurement": "inosine level in dialysate exiting mesenteric vein microdialysis catheter", "setting": "[3]; male, Sprague-Dawley", "value": "1.03 ± 0.32", "unit": "µM"},
      {"measurement": "xanthine level in dialysate exiting mesenteric vein microdialysis catheter", "setting": "[3]; male, Sprague-Dawley", "value": "0.26 ± 0.06", "unit": "µM"},
      {"measurement": "MABP", "setting": "[3]", "value": "108±4", "unit": "mm Hg"},
      {"measurement": "heart rate", "setting": "[3]", "value": "362±14", "unit": "beats/min"},
      {"measurement": "levels of adenosine, inosine, hypoxanthine or xanthine in the aorta (dialysate)", "setting": "[3]", "value": "did not significantly alter"},
      {"measurement": "levels of adenosine, inosine, hypoxanthine or xanthine in the mesenteric vein (dialysate)", "setting": "[3]", "value": "did not significantly alter"},
      {"measurement": "heart rate", "setting": "[4]; Group 2, increasing adenosine 10^-7 to 10^-3 M in lavage", "value": "not significantly different among the seven experimental periods"},
      {"measurement": "MBF compared with period 1 (no infusion, no adenosine)", "setting": "[4]; [7]", "value": "not significantly different than the MBF during period 1"},
      {"measurement": "MBF compared with period 2 (vasoconstrictors, no adenosine)", "setting": "[4]; [7]", "value": "significantly greater than the MBF during period 2"},
      {"measurement": "mesenteric blood flow (MBF)", "setting": "[4]; Group 2, periods 3-6, adenosine 10^-7 M to 10^-4 M in peritoneal lavage fluid, intermittent lavage", "value": "remained significantly depressed"},
      {"measurement": "heart rate (bradycardia)", "setting": "[4]; Group 3, 10^-3 M adenosine in peritoneal lavage fluid", "value": "did not cause bradycardia"},
      {"measurement": "MABP", "setting": "[4]; Group 3, 10^-3 M adenosine, period 4 and period 5", "value": "very slight and transient increase"},
      {"measurement": "MBF compared with period 1", "setting": "[4]; Group 3, by period 7, fixed 10^-3 M adenosine in peritoneal lavage fluid", "value": "no longer significantly different compared with experimental period 1"},
      {"measurement": "MBF compared with period 2", "setting": "[4]; Group 3, periods 3-7, fixed 10^-3 M adenosine in peritoneal lavage fluid", "value": "significantly greater than MBF during period 2"},
      {"measurement": "mesenteric blood flow (summary)", "setting": "[4]; peritoneal lavage with adenosine, p<0.05", "value": "normalized mesenteric blood flow"}
    ]}
  ]
}
